# How the values were obtained:
# Hepatotoxicity [1] = tested on: Hepatotoxicity;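 on HepSE Combined Scores: combined hepatic side effect score as listed in the training data of the Drug Induced Liver Injury Prediction System (DILIps)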;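 on HepSE cholecystitis: Cholecystitis-related hepatic side effect score drawn from the DILIps (drug-induced liver injury prediction) training data set; call rule not given here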;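 on HepSE cirrhosis: cirrhosis hepatic side effect score taken from the DILIps (drug-induced liver injury prediction) training set; call rule not given here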;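 on HepSE hepatitis: Hepatitis-related hepatic side effect score taken from the training data of DILIps, a prediction system for drug-induced liver injury; call rule not given here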;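 on HepSE jaundice: Jaundice-related hepatic side-effect score drawn from the training data of the DILIps (drug-induced liver injury prediction system); call rule not given here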; on HepSE liver disease: call rule not given here;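 on HepSE liver fatty: hepatic side effect score for fatty liver, taken from the DILIps training set for predicting drug-induced liver injury; call rule not given here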
# Hepatotoxicity [2] = tested on: Hepatotoxicity; remark: listed apart in the source;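 on HepSE Combined Scores: combined hepatic side effect score as listed in the training data of the Drug Induced Liver Injury Prediction System (DILIps)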;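 on HepSE cholecystitis: Cholecystitis-related hepatic side effect score drawn from the DILIps (drug-induced liver injury prediction) training data set; call rule not given here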;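 on HepSE cirrhosis: cirrhosis hepatic side effect score taken from the DILIps (drug-induced liver injury prediction) training set; call rule not given here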;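 on HepSE hepatitis: Hepatitis-related hepatic side effect score taken from the training data of DILIps, a prediction system for drug-induced liver injury; call rule not given here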;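 on HepSE jaundice: Jaundice-related hepatic side-effect score drawn from the training data of the DILIps (drug-induced liver injury prediction system); call rule not given here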; on HepSE liver disease: call rule not given here;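 on HepSE liver fatty: hepatic side effect score for fatty liver, taken from the DILIps training set for predicting drug-induced liver injury; call rule not given here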
# Hepatotoxicity [3] = tested on: Hepatotoxicity; remark: listed apart in the source;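 on HepSE Combined Scores: combined hepatic side effect score as listed in the training data of the Drug Induced Liver Injury Prediction System (DILIps)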;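 on HepSE cholecystitis: Cholecystitis-related hepatic side effect score drawn from the DILIps (drug-induced liver injury prediction) training data set; call rule not given here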;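 on HepSE hepatitis: Hepatitis-related hepatic side effect score taken from the training data of DILIps, a prediction system for drug-induced liver injury; call rule not given here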;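 on HepSE jaundice: Jaundice-related hepatic side-effect score drawn from the training data of the DILIps (drug-induced liver injury prediction system); call rule not given here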; on HepSE liver disease: call rule not given here;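 on HepSE liver fatty: hepatic side effect score for fatty liver, taken from the DILIps training set for predicting drug-induced liver injury; call rule not given here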
# Hepatotoxicity [4] = tested on: Hepatotoxicity; remark: listed apart in the source;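 on HepSE Combined Scores: combined hepatic side effect score as listed in the training data of the Drug Induced Liver Injury Prediction System (DILIps)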;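 on HepSE cholecystitis: Cholecystitis-related hepatic side effect score drawn from the DILIps (drug-induced liver injury prediction) training data set; call rule not given here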;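 on HepSE hepatitis: Hepatitis-related hepatic side effect score taken from the training data of DILIps, a prediction system for drug-induced liver injury; call rule not given here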;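 on HepSE jaundice: Jaundice-related hepatic side-effect score drawn from the training data of the DILIps (drug-induced liver injury prediction system); call rule not given here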; on HepSE liver disease: call rule not given here;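 on HepSE liver fatty: hepatic side effect score for fatty liver, taken from the DILIps training set for predicting drug-induced liver injury; call rule not given here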
# Hepatotoxicity [5] = tested on: Hepatotoxicity; remark: listed apart in the source; on HepSE liver disease: call rule not given here
# Hepatotoxicity [6] = tested on: Hepatotoxicity; remark: listed apart in the source; on HepSE liver disease: call rule not given here
# Hepatotoxicity [7] = tested on: Hepatotoxicity; remark: listed apart in the source
# Hepatotoxicity [8] = tested on: Hepatotoxicity; remark: listed apart in the source
# Hepatotoxicity [9] = tested on: Hepatotoxicity; remark: listed apart in the source
# Hepatotoxicity [10] = tested on: Hepatotoxicity; remark: listed apart in the source
# Hepatotoxicity [11] = tested on: Hepatotoxicity; remark: listed apart in the source
# Hepatotoxicity [12] = tested on: Hepatotoxicity; remark: listed apart in the source
SMILES,HepSE_cholecystitis (Hepatotoxicity [1]; Liver),HepSE_hepatitis (Hepatotoxicity [2]; Liver),HepSE_hepatic necrosis (Hepatotoxicity [3]; Liver),HepSE_liver disease (Hepatotoxicity [4]; Liver),HepSE_liver fatty (Hepatotoxicity [5]; Liver),HepSE_bilirubinemia (Hepatotoxicity [6]; Liver),HepSE_Combined Scores (Hepatotoxicity [7]; Liver),HepSE_jaundice (Hepatotoxicity [8]; Liver),HepSE_cholelithiasis (Hepatotoxicity [9]; Liver),HepSE_cirrhosis (Hepatotoxicity [10]; Liver),HepSE_hepatomegaly (Hepatotoxicity [11]; Liver),HepSE_hepatic failure (Hepatotoxicity [12]; Liver),further results
COc1ccc(CCN(C)CCCC(C#N)(c2ccc(OC)c(OC)c2)C(C)C)cc1OC (stereo not given),–,–,–,–,–,–,–,–,–,–,–,–,HepSE_cholecystitis (Hepatotoxicity [1]): 0; HepSE_hepatitis (Hepatotoxicity [2]): 1; HepSE_hepatic necrosis (Hepatotoxicity [3]): 0; HepSE_liver disease (Hepatotoxicity [4]): 0; HepSE_liver fatty (Hepatotoxicity [5]): 0; HepSE_bilirubinemia (Hepatotoxicity [6]): 0; HepSE_Combined Scores (Hepatotoxicity [7]): 2; HepSE_jaundice (Hepatotoxicity [8]): 1; HepSE_cholelithiasis (Hepatotoxicity [9]): 0; HepSE_cirrhosis (Hepatotoxicity [10]): 0; HepSE_hepatomegaly (Hepatotoxicity [11]): 0; HepSE_hepatic failure (Hepatotoxicity [12]): 0
NCCCC(O)(P(=O)(O)O)P(=O)(O)O [ALENDRONIC ACID],0,0,0,0,0,0,0,0,0,0,0,0,–
CCCCc1oc2ccccc2c1C(=O)c1cc(I)c(OCCN(CC)CC)c(I)c1 [AMIODARONE],0,1,0,1,0,0,5,0,0,1,1,0,–
CC(C)NCC(O)COc1ccc(CC(N)=O)cc1 (stereo not given) [ATENOLOL],0,0,0,0,0,0,0,0,0,0,0,0,–
CC(C)c1c(C(=O)Nc2ccccc2)c(-c2ccccc2)c(-c2ccc(F)cc2)n1CC[C@@H](O)C[C@@H](O)CC(=O)O [ATORVASTATIN],0,1,0,0,0,0,3,1,0,0,0,0,–
CN1[C@@H]2CC[C@H]1C[C@@H](OC(=O)C(CO)c1ccccc1)C2 (stereo not given in full) [ATROPINE],0,0,0,0,0,0,0,0,0,0,0,0,–
CC1=C(C(=O)O)N2C(=O)[C@@H](NC(=O)[C@H](N)c3ccccc3)[C@H]2SC1 [CEPHALEXIN ANHYDROUS],0,1,0,0,0,0,2,1,0,0,0,0,–
O=C(O)COCCN1CCN(C(c2ccccc2)c2ccc(Cl)cc2)CC1 (stereo not given) [CETIRIZINE],0,1,0,0,0,0,2,1,0,0,0,0,–
O=C(O)c1cn(C2CC2)c2cc(N3CCNCC3)c(F)cc2c1=O [CIPROFLOXACIN],0,1,1,0,0,1,7,1,0,0,1,1,–
Clc1ccc2c(c1)CCc1cccnc1C2=C1CCNCC1 [DESLORATADINE],–,–,–,–,–,–,–,–,–,–,–,–,HepSE_cholecystitis (Hepatotoxicity [1]): 0; HepSE_hepatitis (Hepatotoxicity [2]): 1; HepSE_hepatic necrosis (Hepatotoxicity [3]): 0; HepSE_liver disease (Hepatotoxicity [4]): 0; HepSE_liver fatty (Hepatotoxicity [5]): 0; HepSE_bilirubinemia (Hepatotoxicity [6]): 0; HepSE_Combined Scores (Hepatotoxicity [7]): 1; HepSE_jaundice (Hepatotoxicity [8]): 0; HepSE_cholelithiasis (Hepatotoxicity [9]): 0; HepSE_cirrhosis (Hepatotoxicity [10]): 0; HepSE_hepatomegaly (Hepatotoxicity [11]): 0; HepSE_hepatic failure (Hepatotoxicity [12]): 0
CN1C(=O)CN=C(c2ccccc2)c2cc(Cl)ccc21 [DIAZEPAM],0,0,0,0,0,0,1,1,0,0,0,0,–
CN(C)CCOC(c1ccccc1)c1ccccc1 [DIPHENHYDRAMINE],0,0,0,0,0,0,0,0,0,0,0,0,–
CC(C)(C(=O)O)c1ccc(C(O)CCCN2CCC(C(O)(c3ccccc3)c3ccccc3)CC2)cc1 (stereo not given) [FEXOFENADINE],0,0,0,0,0,0,0,0,0,0,0,0,–
Cc1ccc(NC(=O)c2ccc(CN3CCN(C)CC3)cc2)cc1Nc1nccc(-c2cccnc2)n1 [IMATINIB],–,–,–,–,–,–,–,–,–,–,–,–,HepSE_cholecystitis (Hepatotoxicity [1]): 0; HepSE_hepatitis (Hepatotoxicity [2]): 1; HepSE_hepatic necrosis (Hepatotoxicity [3]): 1; HepSE_liver disease (Hepatotoxicity [4]): 0; HepSE_liver fatty (Hepatotoxicity [5]): 0; HepSE_bilirubinemia (Hepatotoxicity [6]): 0; HepSE_Combined Scores (Hepatotoxicity [7]): 4; HepSE_jaundice (Hepatotoxicity [8]): 1; HepSE_cholelithiasis (Hepatotoxicity [9]): 0; HepSE_cirrhosis (Hepatotoxicity [10]): 0; HepSE_hepatomegaly (Hepatotoxicity [11]): 0; HepSE_hepatic failure (Hepatotoxicity [12]): 1
CCN(CC)CC(=O)Nc1c(C)cccc1C [LIDOCAINE],0,0,0,0,0,0,0,0,0,0,0,0,–
CCOC(=O)N1CCC(=C2c3ccc(Cl)cc3CCc3cccnc32)CC1 [LORATADINE],0,0,0,0,0,0,0,0,0,0,0,0,–
CN1CC[C@]23c4c5ccc(O)c4O[C@H]2[C@@H](O)C=C[C@H]3[C@H]1C5 [MORPHINE],0,0,0,0,0,0,1,0,0,0,0,0,–
COc1ccc2cc([C@H](C)C(=O)O)ccc2c1 [NAPROXEN],1,1,0,0,0,0,6,1,1,0,0,1,–
CCCNCC(O)COc1ccccc1C(=O)CCc1ccccc1 (stereo not given) [PROPAFENONE],0,1,0,0,0,0,4,1,0,0,1,0,–
CC(C)c1nc(CN(C)C(=O)N[C@H](C(=O)N[C@@H](Cc2ccccc2)C[C@H](O)[C@H](Cc2ccccc2)NC(=O)OCc2cncs2)C(C)C)cs1 [RITONAVIR],–,–,–,–,–,–,–,–,–,–,–,–,HepSE_cholecystitis (Hepatotoxicity [1]): 0; HepSE_hepatitis (Hepatotoxicity [2]): 1; HepSE_hepatic necrosis (Hepatotoxicity [3]): 0; HepSE_liver disease (Hepatotoxicity [4]): 0; HepSE_liver fatty (Hepatotoxicity [5]): 0; HepSE_Combined Scores (Hepatotoxicity [7]): 3; HepSE_jaundice (Hepatotoxicity [8]): 1; HepSE_cholelithiasis (Hepatotoxicity [9]): 0; HepSE_cirrhosis (Hepatotoxicity [10]): 0; HepSE_hepatomegaly (Hepatotoxicity [11]): 1
CN1[C@@H]2C[C@@H](OC(=O)[C@H](CO)c3ccccc3)C[C@H]1[C@@H]1O[C@@H]12 [SCOPOLAMINE],0,0,0,0,0,0,0,0,0,0,0,0,–

# — ChEMBL document CHEMBL1909294, “Translating clinical findings into knowledge in drug safety evaluation--drug induced liver injury prediction system (DILIps)” (PLoS Comput Biol, 2011)
